Calls of active or inactive are those of the source. The rule behind the calls is not given here.
Legend:
[1] = biological target: Hepatocyte growth factor receptor (Homo sapiens, UniProt P08581); experiment: Inhibition of recombinant human N-terminal GST-tagged MET (956 to 1390 residues) cytoplasmic domain expressed in baculovirus expression system using Srctide as substrate incubated for 1 hr by mobility shift assay
[2] = system: A549; experiment: cells; conditions: Homo sapiens, A549, 72 h
[3] = system: HT-29; experiment: cells; conditions: Homo sapiens, HT-29, 72 h
Description: Antiproliferative activity against human HT-29 cells assessed as reduction in cell viability incubated for 72 hrs by MTT assay

[4] = system: KARPAS-299; experiment: Antiproliferative activity against human KARPAS299 cells assessed as reduction in cell viability incubated for 72 hrs by MTT assay; type: functional, cell-based; conditions: KARPAS-299, 72 h
[5] = system: HCC78; experiment: Antiproliferative activity against human HCC78 cells assessed as reduction in cell viability incubated for 72 hrs by MTT assay; type: functional, cell-based; conditions: HCC78, 72 h
[6] = biological target: Epidermal growth factor receptor (Homo sapiens, UniProt P00533)
Description: Inhibition of recombinant human N-terminal GST-tagged EGFR (669 to 1210 residues) cytoplasmic domain expressed in baculovirus expression system using Srctide as substrate incubated for 1 hr by mobility shift assay

[7] = biological target: Proto-oncogene tyrosine-protein kinase ROS (Homo sapiens, UniProt P08922); experiment: Inhibition of recombinant human N-terminal GST-tagged ROS (1883 to 2347 residues) cytoplasmic domain expressed in baculovirus expression system using IRS1 as substrate incubated for 1 hr by mobility shift assay
[8] = biological target: ALK tyrosine kinase receptor (Homo sapiens, UniProt Q9UM73); experiment: Inhibition of recombinant human N-terminal GST-tagged ALK (1058 to 1620 residues) cytoplasmic domain expressed in baculovirus expression system using srctide as substrate incubated for 1 hr by mobility shift assay
[9] = system: A549; experiment: Antiproliferative activity against human A549 cells harbouring […] mutant assessed as reduction in cell viability incubated for 72 hrs by MTT assay; type: functional, cell-based; conditions: A549, 72 h
[10] = biological target: ALK tyrosine kinase receptor (Homo sapiens, UniProt Q9UM73, G1202R); experiment: Inhibition of recombinant human N-terminal GST-tagged ALK (1058 to 1620 residues) cytoplasmic domain G1202R mutant using srctide as substrate incubated for 1 hr by mobility shift assay
[11] = biological target: ALK tyrosine kinase receptor (Homo sapiens, UniProt Q9UM73, L1196M); experiment: Inhibition of recombinant human N-terminal GST-tagged ALK (1058 to 1620 residues) cytoplasmic domain L1196M mutant expressed in baculovirus expression system using srctide as substrate incubated for 1 hr by mobility shift assay
[12] = system: NCI-H2228; experiment: Antiproliferative activity against human NCI-H2228 cells assessed as reduction in cell viability incubated for 72 hrs by MTT assay; type: functional, cell-based; conditions: NCI-H2228, 72 h
[13] = system: NCI-H2228; experiment: Induction of apoptosis in human NCI-H2228 cells assessed as increase in cell membrane damage at 30 nM incubated for 48 hrs by Hoechst 33258 staining based fluorescence microscopy; type: functional
[14] = system: A549; experiment: Potency index, ratio of IC50 of ceritinib to IC50 of compound for antiproliferative activity against human A549 cells harbouring […] mutant assessed as reduction in cell viability incubated for 72 hrs by MTT assay; type: functional
[15] = system: NCI-H2228; experiment: Induction of apoptosis in human NCI-H2228 cells assessed as increase in nuclear shrinkage at 30 nM incubated for 48 hrs by AO/EB staining based fluorescence microscopy; type: functional, cell-based
[16] = system: NCI-H2228; experiment: Induction of apoptosis in human NCI-H2228 cells assessed as increase in nuclear fragmentation at 30 nM incubated for 48 hrs by AO/EB staining based fluorescence microscopy; type: functional, cell-based
[17] = system: NCI-H2228; experiment: Induction of apoptosis in human NCI-H2228 cells assessed as increase in cell membrane damage incubated for 48 hrs by Hoechst 33258 staining based fluorescence microscopy; type: functional
[18] = system: NCI-H2228; experiment: Induction of apoptosis in human NCI-H2228 cells assessed as increase in nuclei damage at 30 nM incubated for 48 hrs by Hoechst 33258 staining based fluorescence microscopy; type: functional, cell-based
[19] = system: NCI-H2228; experiment: Induction of apoptosis in human NCI-H2228 cells assessed as increase in nuclear fragmentation incubated for 48 hrs by AO/EB staining based fluorescence microscopy; type: functional, cell-based
[20] = system: NCI-H2228; experiment: Induction of apoptosis in human NCI-H2228 cells assessed as increase in nuclei damage incubated for 48 hrs by Hoechst 33258 staining based fluorescence microscopy; type: functional, cell-based
[21] = system: NCI-H2228; experiment: Induction of apoptosis in human NCI-H2228 cells assessed as increase in nuclear shrinkage incubated for 48 hrs by AO/EB staining based fluorescence microscopy; type: functional, cell-based

ALK tyrosine kinase receptor (Homo sapiens, UniProt Q9UM73, L1196M), sequence (Q9UM73 19-1620 L1196M limits assumed): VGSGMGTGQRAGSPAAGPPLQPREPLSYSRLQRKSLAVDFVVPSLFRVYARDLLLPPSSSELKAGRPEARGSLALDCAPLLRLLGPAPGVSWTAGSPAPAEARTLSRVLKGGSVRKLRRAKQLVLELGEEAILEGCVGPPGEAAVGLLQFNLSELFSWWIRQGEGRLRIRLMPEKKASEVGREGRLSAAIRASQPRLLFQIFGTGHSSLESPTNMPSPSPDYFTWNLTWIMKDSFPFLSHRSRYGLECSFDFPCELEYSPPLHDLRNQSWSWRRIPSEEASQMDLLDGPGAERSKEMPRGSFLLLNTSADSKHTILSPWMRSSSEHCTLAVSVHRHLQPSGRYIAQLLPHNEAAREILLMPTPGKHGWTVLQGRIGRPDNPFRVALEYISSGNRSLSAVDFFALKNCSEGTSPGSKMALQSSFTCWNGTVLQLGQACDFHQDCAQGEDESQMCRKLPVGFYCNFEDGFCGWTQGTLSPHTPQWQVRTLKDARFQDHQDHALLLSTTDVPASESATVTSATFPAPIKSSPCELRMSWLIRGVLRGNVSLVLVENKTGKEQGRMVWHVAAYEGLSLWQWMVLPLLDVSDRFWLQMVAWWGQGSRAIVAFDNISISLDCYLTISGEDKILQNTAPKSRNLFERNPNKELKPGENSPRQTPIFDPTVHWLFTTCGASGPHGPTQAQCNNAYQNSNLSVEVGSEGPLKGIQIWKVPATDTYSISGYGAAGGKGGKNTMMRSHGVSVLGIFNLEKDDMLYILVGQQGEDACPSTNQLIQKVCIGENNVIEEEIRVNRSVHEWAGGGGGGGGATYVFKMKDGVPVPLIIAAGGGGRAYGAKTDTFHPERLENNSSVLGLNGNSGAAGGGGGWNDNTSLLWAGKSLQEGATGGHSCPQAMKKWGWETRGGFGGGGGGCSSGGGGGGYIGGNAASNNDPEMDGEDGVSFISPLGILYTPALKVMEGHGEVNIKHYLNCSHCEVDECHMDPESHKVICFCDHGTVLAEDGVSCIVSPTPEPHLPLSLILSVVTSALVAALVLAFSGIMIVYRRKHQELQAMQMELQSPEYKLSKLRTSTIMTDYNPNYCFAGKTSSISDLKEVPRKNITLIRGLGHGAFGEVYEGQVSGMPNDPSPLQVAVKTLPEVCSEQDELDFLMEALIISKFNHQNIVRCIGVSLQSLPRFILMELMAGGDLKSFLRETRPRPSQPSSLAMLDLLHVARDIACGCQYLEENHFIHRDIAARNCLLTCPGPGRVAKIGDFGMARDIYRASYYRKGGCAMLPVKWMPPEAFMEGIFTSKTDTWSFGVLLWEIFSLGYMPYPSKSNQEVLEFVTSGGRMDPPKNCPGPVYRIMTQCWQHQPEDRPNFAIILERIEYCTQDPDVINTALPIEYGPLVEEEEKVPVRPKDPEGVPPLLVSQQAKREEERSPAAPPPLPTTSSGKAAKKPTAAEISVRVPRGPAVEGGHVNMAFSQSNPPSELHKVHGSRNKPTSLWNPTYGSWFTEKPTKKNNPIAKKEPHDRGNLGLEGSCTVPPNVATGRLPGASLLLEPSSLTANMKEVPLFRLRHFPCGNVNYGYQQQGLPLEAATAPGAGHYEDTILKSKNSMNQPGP
Proto-oncogene tyrosine-protein kinase ROS, sequence (P08922 whole entry, the tested form may be a part): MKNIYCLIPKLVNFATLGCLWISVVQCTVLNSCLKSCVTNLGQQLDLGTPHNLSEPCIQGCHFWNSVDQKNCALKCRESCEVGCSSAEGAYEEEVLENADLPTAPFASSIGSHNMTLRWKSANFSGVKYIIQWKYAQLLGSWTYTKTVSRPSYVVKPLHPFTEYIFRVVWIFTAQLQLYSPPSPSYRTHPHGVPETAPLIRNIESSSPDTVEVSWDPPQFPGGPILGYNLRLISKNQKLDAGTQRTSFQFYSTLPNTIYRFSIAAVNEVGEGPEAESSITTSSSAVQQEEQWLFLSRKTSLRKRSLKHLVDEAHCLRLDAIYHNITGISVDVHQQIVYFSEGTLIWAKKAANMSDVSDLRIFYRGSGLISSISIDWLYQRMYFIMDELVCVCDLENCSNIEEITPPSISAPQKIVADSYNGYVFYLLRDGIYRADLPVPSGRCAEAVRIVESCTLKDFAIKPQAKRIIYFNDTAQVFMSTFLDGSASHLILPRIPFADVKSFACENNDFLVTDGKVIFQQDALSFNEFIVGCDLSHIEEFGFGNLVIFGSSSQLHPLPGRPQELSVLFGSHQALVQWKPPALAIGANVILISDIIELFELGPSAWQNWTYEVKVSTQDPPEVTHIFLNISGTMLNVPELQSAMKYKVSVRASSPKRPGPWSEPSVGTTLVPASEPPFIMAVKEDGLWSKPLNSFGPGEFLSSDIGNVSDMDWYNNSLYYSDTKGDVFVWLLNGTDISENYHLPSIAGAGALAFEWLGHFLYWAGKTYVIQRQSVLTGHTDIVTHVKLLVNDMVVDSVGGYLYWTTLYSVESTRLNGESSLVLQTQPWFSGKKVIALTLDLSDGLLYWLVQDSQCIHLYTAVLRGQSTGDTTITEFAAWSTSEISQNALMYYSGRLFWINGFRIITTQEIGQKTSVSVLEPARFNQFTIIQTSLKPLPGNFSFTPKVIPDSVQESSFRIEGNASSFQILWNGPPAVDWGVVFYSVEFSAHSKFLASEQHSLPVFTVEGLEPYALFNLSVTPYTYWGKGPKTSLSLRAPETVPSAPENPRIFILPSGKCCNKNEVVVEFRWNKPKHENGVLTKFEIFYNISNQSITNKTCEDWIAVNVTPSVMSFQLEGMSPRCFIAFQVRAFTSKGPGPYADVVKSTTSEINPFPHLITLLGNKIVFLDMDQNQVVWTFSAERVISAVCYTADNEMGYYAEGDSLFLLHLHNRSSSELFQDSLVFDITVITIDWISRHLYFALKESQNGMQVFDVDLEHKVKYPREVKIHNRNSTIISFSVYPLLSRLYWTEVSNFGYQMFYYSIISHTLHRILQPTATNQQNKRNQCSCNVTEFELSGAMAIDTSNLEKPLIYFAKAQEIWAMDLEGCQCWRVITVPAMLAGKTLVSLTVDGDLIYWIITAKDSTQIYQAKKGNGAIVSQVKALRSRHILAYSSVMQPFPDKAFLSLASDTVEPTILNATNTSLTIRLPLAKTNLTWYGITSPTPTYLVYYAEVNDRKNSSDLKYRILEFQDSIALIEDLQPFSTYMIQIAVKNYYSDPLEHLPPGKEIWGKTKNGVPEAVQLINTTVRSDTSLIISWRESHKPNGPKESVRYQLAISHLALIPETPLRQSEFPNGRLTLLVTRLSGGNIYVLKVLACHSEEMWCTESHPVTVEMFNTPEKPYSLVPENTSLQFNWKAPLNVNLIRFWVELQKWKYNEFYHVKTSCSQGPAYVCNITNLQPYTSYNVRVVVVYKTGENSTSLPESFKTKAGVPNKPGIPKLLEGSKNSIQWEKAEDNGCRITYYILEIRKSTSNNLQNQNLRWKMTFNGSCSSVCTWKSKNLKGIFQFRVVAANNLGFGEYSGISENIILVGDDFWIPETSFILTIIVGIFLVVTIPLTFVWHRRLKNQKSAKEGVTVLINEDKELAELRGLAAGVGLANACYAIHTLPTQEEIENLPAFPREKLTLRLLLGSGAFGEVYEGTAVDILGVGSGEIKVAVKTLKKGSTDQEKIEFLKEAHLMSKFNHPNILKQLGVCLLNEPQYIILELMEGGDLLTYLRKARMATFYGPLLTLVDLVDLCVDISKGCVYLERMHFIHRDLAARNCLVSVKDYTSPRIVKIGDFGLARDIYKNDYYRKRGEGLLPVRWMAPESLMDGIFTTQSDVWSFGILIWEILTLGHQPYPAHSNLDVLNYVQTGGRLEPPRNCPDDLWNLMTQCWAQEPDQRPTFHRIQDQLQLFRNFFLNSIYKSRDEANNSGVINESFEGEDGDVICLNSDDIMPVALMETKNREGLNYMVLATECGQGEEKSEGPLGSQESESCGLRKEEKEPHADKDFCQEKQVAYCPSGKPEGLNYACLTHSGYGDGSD
Epidermal growth factor receptor, sequence (P00533 whole entry, the tested form may be a part): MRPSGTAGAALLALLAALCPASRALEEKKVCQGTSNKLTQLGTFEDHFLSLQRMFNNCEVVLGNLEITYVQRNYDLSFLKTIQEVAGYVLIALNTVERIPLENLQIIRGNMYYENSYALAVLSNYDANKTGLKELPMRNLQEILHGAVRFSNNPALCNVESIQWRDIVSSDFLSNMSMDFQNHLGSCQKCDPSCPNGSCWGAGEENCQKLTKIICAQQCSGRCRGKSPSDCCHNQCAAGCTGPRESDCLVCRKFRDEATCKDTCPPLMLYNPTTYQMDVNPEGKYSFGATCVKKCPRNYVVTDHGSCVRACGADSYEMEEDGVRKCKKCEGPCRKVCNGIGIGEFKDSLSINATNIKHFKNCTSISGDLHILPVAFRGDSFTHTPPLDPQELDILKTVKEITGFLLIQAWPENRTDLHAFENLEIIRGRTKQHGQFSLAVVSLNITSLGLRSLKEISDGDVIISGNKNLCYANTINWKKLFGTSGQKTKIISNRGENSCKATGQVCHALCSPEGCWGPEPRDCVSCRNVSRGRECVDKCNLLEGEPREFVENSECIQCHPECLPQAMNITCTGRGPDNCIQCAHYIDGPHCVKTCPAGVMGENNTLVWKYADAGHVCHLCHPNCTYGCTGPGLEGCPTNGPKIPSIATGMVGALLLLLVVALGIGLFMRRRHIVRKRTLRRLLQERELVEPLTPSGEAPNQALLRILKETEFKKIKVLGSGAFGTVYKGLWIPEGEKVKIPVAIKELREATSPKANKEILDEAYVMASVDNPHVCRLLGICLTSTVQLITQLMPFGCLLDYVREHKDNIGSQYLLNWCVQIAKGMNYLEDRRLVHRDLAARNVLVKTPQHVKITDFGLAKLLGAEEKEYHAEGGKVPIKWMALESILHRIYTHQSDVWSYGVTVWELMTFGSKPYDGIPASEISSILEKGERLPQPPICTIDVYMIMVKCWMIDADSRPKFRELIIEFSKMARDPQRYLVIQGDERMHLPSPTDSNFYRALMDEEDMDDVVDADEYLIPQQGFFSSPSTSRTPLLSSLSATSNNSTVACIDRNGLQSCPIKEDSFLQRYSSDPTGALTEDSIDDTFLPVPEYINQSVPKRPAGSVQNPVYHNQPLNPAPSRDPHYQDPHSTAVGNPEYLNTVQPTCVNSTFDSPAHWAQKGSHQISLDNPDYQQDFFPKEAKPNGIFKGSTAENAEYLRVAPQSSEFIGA

Row | SMILES | IC50 [1] [nM] | IC50 [2] [nM] | IC50 [3] [nM] | IC50 [4] [nM] | IC50 [5] [nM] | IC50 [6] [nM] | IC50 [7] [nM] | IC50 [8] [nM] | IC50 [9] [nM] | IC50 [10] [nM] | IC50 [11] [nM] | IC50 [12] [nM] | other results
1 | COc1cc(NC(=O)C2CC2)ccc1Nc1ncc(Cl)c(Nc2ccccc2NC(C)=O)n1 | > 1000 | > 10000 | 2960 | 1060 | 230 | 617 | 3.2 | 4.1 | 930 | 11.5 | 6.6 | 490 | –
2 | COc1cc(N2CCCC2=O)ccc1Nc1ncc(Cl)c(Nc2ccccc2NC(C)=O)n1 | 532 | 4130 | 1530 | 220 | 97 | > 1000 | 4.4 | 6.2 | 410 | 15.7 | 2.9 | 220 | –
3 | COc1cc(NC(=O)N2CCN(CCO)CC2)ccc1Nc1ncc(Cl)c(Nc2ccccc2NC(C)=O)n1 | > 1000 | > 10000 | 4030 | 93 | 130 | > 1000 | 1.7 | 6.3 | 270 | 6.3 | 2.7 | 260 | –
4 | COc1cc(NC(=O)N2CCCC2)ccc1Nc1ncc(Cl)c(Nc2ccccc2NC(C)=O)n1 | > 1000 | > 10000 | 1270 | 160 | 870 | > 1000 | 0.97 | 5.1 | 360 | 7.1 | 3.7 | 79 | –
5 | COc1cc(NC(=O)NC2CCC(=O)CC2)ccc1Nc1ncc(Cl)c(Nc2ccccc2NC(C)=O)n1 | 325 | 1720 | > 10000 | 77 | 67 | > 1000 | 3.7 | 2.5 | 190 | 9.3 | 3.9 | 550 | –
6 | COc1cc(N2CCCNC2=O)ccc1Nc1ncc(Cl)c(Nc2ccccc2NC(C)=O)n1 | > 1000 | > 10000 | 6070 | 100 | 89 | > 1000 | 5.3 | 4.7 | 170 | 10.2 | 5.1 | 220 | –
7 | COc1cc(NC(=O)N2CCOCC2)ccc1Nc1ncc(Cl)c(Nc2ccccc2NC(C)=O)n1 | > 1000 | 1610 | > 10000 | 27 | 41 | > 1000 | 0.73 | 2.1 | 30 | 4.3 | 0.91 | 56 | Activity [13]: Active; Ratio IC50 [14]: 16.5; Activity [15]: Active; Activity [16]: Active; Activity [17]: Dose-dependent effect; Activity [18]: Active; Activity [19]: Dose-dependent effect; Activity [20]: Dose-dependent effect; Activity [21]: Dose-dependent effect
